Assay: xn = mol fraction of the nth substance listed
Conditions: 101 kPa, Liquid; for viscosity: Falling or rolling sphere viscometry; for mass density: Vibrating tube method

CCO [ethanol] + CCCCO
x1 = 1
Conditions	mass density [kg/m3]	viscosity [mPa·s]
293.15 K	790.13	1.151
298.15 K	785.86	1.069
303.15 K	781.56	0.973
308.15 K	777.23	0.888
313.15 K	772.86	0.813
318.15 K	768.44	0.755
323.15 K	763.97	0.684
328.15 K	759.44	0.63

CCO [ethanol] + CCCO
x1 = 1
Conditions	mass density [kg/m3]	viscosity [mPa·s]
293.15 K	790.13	1.151
298.15 K	785.86	1.069
303.15 K	781.56	0.973
308.15 K	777.23	0.888
313.15 K	772.86	0.813
318.15 K	768.44	0.755
323.15 K	763.97	0.684
328.15 K	759.44	0.63

CCCCCO [pentan-1-ol] + CCO
Conditions	mass density [kg/m3]	viscosity [mPa·s]
293.15 K, x2 = 0	814.16	3.939
293.15 K, x2 = 0.101	812.81	3.557
293.15 K, x2 = 0.2	811.19	3.218
293.15 K, x2 = 0.3	809.41	2.884
293.15 K, x2 = 0.401	807.59	2.584
293.15 K, x2 = 0.5	805.44	2.272
293.15 K, x2 = 0.6	803.06	2.025
293.15 K, x2 = 0.7	800.17	1.784
293.15 K, x2 = 0.801	797.32	1.551
293.15 K, x2 = 0.901	793.6	1.349
298.15 K, x2 = 0	810.52	3.412
298.15 K, x2 = 0.101	809.14	3.098
298.15 K, x2 = 0.2	807.5	2.818
298.15 K, x2 = 0.3	805.67	2.541
298.15 K, x2 = 0.401	803.79	2.288
298.15 K, x2 = 0.5	801.6	2.021
298.15 K, x2 = 0.6	799.16	1.81
298.15 K, x2 = 0.7	796.21	1.603
298.15 K, x2 = 0.801	793.25	1.399
298.15 K, x2 = 0.901	789.45	1.222
303.15 K, x2 = 0	806.84	2.971
303.15 K, x2 = 0.101	805.44	2.713
303.15 K, x2 = 0.2	803.76	2.48
303.15 K, x2 = 0.3	801.9	2.249
303.15 K, x2 = 0.401	799.97	2.034
303.15 K, x2 = 0.5	797.73	1.805
303.15 K, x2 = 0.6	795.24	1.624
303.15 K, x2 = 0.7	792.21	1.444
303.15 K, x2 = 0.801	789.17	1.265
303.15 K, x2 = 0.901	785.28	1.109
308.15 K, x2 = 0	803.14	2.599
308.15 K, x2 = 0.101	801.71	2.385
308.15 K, x2 = 0.2	800	2.192
308.15 K, x2 = 0.3	798.1	1.997
308.15 K, x2 = 0.401	796.12	1.814
308.15 K, x2 = 0.5	793.83	1.617
308.15 K, x2 = 0.6	791.27	1.461
308.15 K, x2 = 0.7	788.18	1.304
308.15 K, x2 = 0.801	785.06	1.147
308.15 K, x2 = 0.901	781.06	1.01
313.15 K, x2 = 0	799.42	2.283
313.15 K, x2 = 0.101	797.95	2.105
313.15 K, x2 = 0.2	796.2	1.943
313.15 K, x2 = 0.3	794.26	1.779
313.15 K, x2 = 0.401	792.24	1.623
313.15 K, x2 = 0.5	789.89	1.452
313.15 K, x2 = 0.6	787.27	1.317
313.15 K, x2 = 0.7	784.11	1.181
313.15 K, x2 = 0.801	780.91	1.042
313.15 K, x2 = 0.901	776.81	0.921
318.15 K, x2 = 0	795.64	2.014
318.15 K, x2 = 0.101	794.14	1.865
318.15 K, x2 = 0.2	792.36	1.728
318.15 K, x2 = 0.3	790.38	1.59
318.15 K, x2 = 0.401	788.31	1.455
318.15 K, x2 = 0.5	785.91	1.308
318.15 K, x2 = 0.6	783.23	1.192
318.15 K, x2 = 0.7	780	1.072
318.15 K, x2 = 0.801	776.71	0.949
318.15 K, x2 = 0.901	772.51	0.841
323.15 K, x2 = 0	791.84	1.784
323.15 K, x2 = 0.101	790.29	1.658
323.15 K, x2 = 0.2	788.48	1.543
323.15 K, x2 = 0.3	786.46	1.426
323.15 K, x2 = 0.401	784.34	1.31
323.15 K, x2 = 0.5	781.88	1.181
323.15 K, x2 = 0.6	779.14	1.08
323.15 K, x2 = 0.7	775.83	0.975
323.15 K, x2 = 0.801	772.46	0.866
323.15 K, x2 = 0.901	768.16	0.771
328.15 K, x2 = 0	787.98	1.586
328.15 K, x2 = 0.101	786.4	1.48
328.15 K, x2 = 0.2	784.55	1.382
328.15 K, x2 = 0.3	782.49	1.283
328.15 K, x2 = 0.401	780.32	1.182
328.15 K, x2 = 0.5	777.8	1.07
328.15 K, x2 = 0.6	775	0.982
328.15 K, x2 = 0.7	771.63	0.889
328.15 K, x2 = 0.801	768.16	0.792
328.15 K, x2 = 0.901	763.76	0.707

— the NIST ThermoML archive (doi:10.1021/je300632p)
